# Structures can show the parent of a compound that is named as a salt. Where two headings read alike, the source gives them in different places.
# Assays:
# Type in all cases: biochemical
# [1] = molecular target: T1, recombinant human VAP-1 (Homo sapiens, UniProt Q16853); test: Activity evaluation on recombinant human VAP-1 (Amplex Red/HRP-coupled hydrogen peroxide assay, benzylamine substrate); conditions: read-out: Inhibitory Activity (IC50, nM) human VAP-1
# T1 construct: purchased R&D systems
# T1 sequence (Q16853 1-763): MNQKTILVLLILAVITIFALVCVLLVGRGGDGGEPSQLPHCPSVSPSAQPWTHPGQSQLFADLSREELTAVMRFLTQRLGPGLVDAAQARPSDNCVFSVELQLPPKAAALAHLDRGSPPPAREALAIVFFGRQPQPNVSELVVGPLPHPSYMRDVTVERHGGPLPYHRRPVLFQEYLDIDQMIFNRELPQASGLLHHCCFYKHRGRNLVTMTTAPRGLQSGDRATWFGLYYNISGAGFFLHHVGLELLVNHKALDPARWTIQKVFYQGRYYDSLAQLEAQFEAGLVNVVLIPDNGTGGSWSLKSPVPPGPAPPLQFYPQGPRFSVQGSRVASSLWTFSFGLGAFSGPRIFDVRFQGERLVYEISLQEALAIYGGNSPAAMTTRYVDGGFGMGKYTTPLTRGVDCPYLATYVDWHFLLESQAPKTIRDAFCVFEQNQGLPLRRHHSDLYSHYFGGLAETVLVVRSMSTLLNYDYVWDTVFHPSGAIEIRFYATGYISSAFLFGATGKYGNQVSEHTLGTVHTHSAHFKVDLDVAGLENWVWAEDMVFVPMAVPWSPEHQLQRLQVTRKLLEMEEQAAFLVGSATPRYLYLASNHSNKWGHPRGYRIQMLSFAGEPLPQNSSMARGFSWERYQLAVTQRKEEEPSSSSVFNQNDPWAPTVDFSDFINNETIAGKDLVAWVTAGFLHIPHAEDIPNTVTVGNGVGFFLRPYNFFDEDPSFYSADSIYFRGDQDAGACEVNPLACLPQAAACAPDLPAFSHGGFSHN
# Summary of the method: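 Hydrogen peroxide from benzylamine (1 mM) oxidation by human recombinant VAP-1 detected via HRP-coupled Amplex Red (200 uM) fluorescence, kinetic over 1–2 h. Enzyme and compound preincubated 30 min at 37 °C, pH 7.4 phosphate; 8-point dose response, signal-rate decrease versus DMSO control fitted to four-parameter logistic for IC50.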
# [2] = molecular target: T2, recombinant human MAO-A (monoamine oxidase-A) (Homo sapiens, UniProt P21397); test: Activity evaluation on recombinant human MAO-A (Amplex Red/HRP-coupled assay, 0.5 mM tyramine substrate); conditions: read-out: Inhibitory Activity (IC50, nM) MAO-A
# T2 construct: purchased Sigma-Aldrich
# T2 sequence (P21397 1-527): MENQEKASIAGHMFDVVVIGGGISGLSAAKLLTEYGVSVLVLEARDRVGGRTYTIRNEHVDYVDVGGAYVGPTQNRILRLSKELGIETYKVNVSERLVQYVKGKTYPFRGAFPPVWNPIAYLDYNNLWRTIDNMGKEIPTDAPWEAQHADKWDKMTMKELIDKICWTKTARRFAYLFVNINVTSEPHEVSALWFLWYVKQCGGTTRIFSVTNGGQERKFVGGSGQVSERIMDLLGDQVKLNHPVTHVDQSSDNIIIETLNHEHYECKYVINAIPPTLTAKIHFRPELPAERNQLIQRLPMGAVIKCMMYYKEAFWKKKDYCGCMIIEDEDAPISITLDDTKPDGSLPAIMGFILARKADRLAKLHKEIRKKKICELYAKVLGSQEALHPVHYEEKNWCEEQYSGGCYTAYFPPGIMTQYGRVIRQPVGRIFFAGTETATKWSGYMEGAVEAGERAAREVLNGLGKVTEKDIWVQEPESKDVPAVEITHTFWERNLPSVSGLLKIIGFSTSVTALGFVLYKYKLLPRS
# Summary of the method: (§1)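 Using an HRP-coupled Amplex Red readout (544/590 nm, kinetic over 1–2 h), IC50 values were fitted by 4-parameter logistic model to percent decrease in signal rate against DMSO control. Compounds (1:3 dilutions, 8 points, <1% DMSO) sat 30 min at 37 °C with enzyme in pH 7.4 phosphate buffer before substrate, 200 uM Amplex Red and HRP were added.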
# [3] = molecular target: T3, recombinant human MAO-B (monoamine oxidase-B) (Homo sapiens, UniProt P27338); test: Activity evaluation on recombinant human MAO-B (Amplex Red/HRP-coupled assay, 1 mM benzylamine substrate); conditions: read-out: Inhibitory Activity (IC50, nM) MAO-B
# T3 construct: purchased Sigma-Aldrich
# T3 sequence (P27338 1-520): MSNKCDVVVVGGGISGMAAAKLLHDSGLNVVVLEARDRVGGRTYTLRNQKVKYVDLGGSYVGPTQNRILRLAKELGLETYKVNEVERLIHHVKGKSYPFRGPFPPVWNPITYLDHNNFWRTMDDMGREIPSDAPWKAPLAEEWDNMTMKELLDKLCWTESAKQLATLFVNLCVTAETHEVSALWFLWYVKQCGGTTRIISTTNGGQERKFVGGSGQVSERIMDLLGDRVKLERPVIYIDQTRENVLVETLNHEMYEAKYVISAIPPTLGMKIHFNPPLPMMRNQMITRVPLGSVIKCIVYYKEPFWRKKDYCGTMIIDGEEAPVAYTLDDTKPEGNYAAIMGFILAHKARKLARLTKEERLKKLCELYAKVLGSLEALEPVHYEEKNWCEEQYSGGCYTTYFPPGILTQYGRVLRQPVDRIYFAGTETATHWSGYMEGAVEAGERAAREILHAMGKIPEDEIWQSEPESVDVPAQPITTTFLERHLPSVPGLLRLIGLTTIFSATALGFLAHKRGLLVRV
# Summary of the method: as §1
# [4] = molecular target: T4, recombinant human DAO (diamine oxidase) (Homo sapiens, UniProt P19801); test: Activity evaluation on recombinant human DAO (Amplex Red/HRP-coupled assay, 1 mM putrescine substrate); conditions: read-out: Inhibitory Activity (IC50, nM) DAO
# T4 construct: purchased R&D systems
# T4 sequence (P19801 20-751): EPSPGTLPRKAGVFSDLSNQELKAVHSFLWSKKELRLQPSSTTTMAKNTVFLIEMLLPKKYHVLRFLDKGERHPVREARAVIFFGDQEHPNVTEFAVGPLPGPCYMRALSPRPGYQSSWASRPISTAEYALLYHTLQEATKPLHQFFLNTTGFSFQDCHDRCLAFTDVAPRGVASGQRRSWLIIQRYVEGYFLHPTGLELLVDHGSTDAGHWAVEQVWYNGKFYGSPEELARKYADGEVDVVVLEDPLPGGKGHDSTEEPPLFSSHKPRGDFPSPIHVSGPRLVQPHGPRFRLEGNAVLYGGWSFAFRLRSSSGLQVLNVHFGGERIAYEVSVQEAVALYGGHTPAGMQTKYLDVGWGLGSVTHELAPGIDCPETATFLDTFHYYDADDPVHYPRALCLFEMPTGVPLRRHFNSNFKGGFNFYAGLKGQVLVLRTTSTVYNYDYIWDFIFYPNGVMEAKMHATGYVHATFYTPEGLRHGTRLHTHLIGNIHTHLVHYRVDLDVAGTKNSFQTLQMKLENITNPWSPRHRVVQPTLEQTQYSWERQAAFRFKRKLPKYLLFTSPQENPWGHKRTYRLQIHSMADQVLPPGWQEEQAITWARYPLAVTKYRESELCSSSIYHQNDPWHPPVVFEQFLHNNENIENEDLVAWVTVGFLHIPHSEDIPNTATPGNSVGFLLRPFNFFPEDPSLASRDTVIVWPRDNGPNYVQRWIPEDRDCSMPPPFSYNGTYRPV
# Summary of the method: as §1
# [5] = recombinant human VAP-1, benzylamine substrate
# [6] = recombinant human VAP-1, 30 min preincubation at 37° C., 1 mM benzylamine
Compound,"IC50 [1, 5] [nM]",IC50 ([2]; 0.5 mM tyramine substrate) [nM],IC50 ([3]; 1 mM benzylamine substrate) [nM],IC50 ([4]; 1 mM putrescine substrate) [nM],"IC50 [1, 6] [nM]",IC50 ([2]; 0.5 mM tyramine) [nM],IC50 ([3]; 1 mM benzylamine) [nM],IC50 ([4]; 1 mM putrescine) [nM]
"NCC(Cn1ncn(Cc2sc(-c3ccc4c(c3)OCO4)cc2F)c1=O)=C(F)F [Example 300, 2-[2-(aminomethyl)-3,3-difluoro-allyl]-4-[[5-(1,3-benzodioxol-5-yl)-3-fluoro-2-thienyl]methyl]-1,2,4-triazol-3-one Trifluoroacetate]",1.7,> 100000,11100,25300,–,–,–,–
"NCC(Cn1ncn(Cc2ccc(-c3cc(F)c4[nH]c(=O)ccc4c3)s2)c1=O)=C(F)F [Example 137, 6-[5-[[1-[2-(aminomethyl)-3,3-difluoro-allyl]-5-oxo-1,2,4-triazol-4-yl]methyl]-2-thienyl]-8-fluoro-1H-quinolin-2-one Trifluoroacetate]",–,–,–,–,0.3,> 100000,> 100000,> 100000
"CCn1cc(-c2ccc3sc(Cn4cnn(CC(CN)=C(F)F)c4=O)cc3c2)cn1 [Example 212, 2-[2-(aminomethyl)-3,3-difluoro-allyl]-4-[[5-(1-ethylpyrazol-4-yl)benzothiophen-2-yl]methyl]-1,2,4-triazol-3-one Trifluoroacetate]",1.5,79100,> 100000,4320,–,–,–,–
"Cn1cc(C#Cc2ccc(Cn3cnn(CC(CN)=C(F)F)c3=O)s2)cn1 [Example 171, 2-[2-(aminomethyl)-3,3-difluoro-allyl]-4-[[5-[2-(1-methylpyrazol-4-yl)ethynyl]-2-thienyl]methyl]-1,2,4-triazol-3-one Trifluoroacetate]",–,–,–,–,1.8,> 100000,50000,> 100000
"Cn1cc(-c2csc(Cn3cnn(CC(CN)=C(F)F)c3=O)c2)ccc1=O [Example 190, 5-[5-[[1-[2-(aminomethyl)-3,3-difluoro-allyl]-5-oxo-1,2,4-triazol-4-yl]methyl]-3-thienyl]-1-methyl-pyridin-2-one Trifluoroacetate]",1.4,> 100000,> 100000,63000,–,–,–,–
"CN1Cc2cc(-c3ccc(Cn4cnn(CC(CN)=C(F)F)c4=O)s3)ccc2NC1=O [Example 182, 6-[5-[[1-[2-(aminomethyl)-3,3-difluoro-allyl]-5-oxo-1,2,4-triazol-4-yl]methyl]-2-thienyl]-3-methyl-1,4-dihydroquinazolin-2-one Trifluoroacetate]",0.2,> 100000,> 100000,> 100000,–,–,–,–

# Results, then the molecule that gave them:
"IC50 [1, 5] [nM]",IC50 ([2]; 0.5 mM tyramine substrate) [nM],IC50 ([3]; 1 mM benzylamine substrate) [nM],IC50 ([4]; 1 mM putrescine substrate) [nM],"IC50 [1, 6] [nM]",IC50 ([2]; 0.5 mM tyramine) [nM],IC50 ([3]; 1 mM benzylamine) [nM],IC50 ([4]; 1 mM putrescine) [nM],Compound
–,–,–,–,1.7,6280,> 10000,1300,"NCC(Cn1ncn(-c2ccc(-c3ccc(N4CCNCC4)cc3)c(F)c2)c1=O)=C(F)F [Example 25, 2-[2-(aminomethyl)-3,3-difluoro-allyl]-4-[3-fluoro-4-(4-piperazin-1-ylphenyl)phenyl]-1,2,4-triazol-3-one Ditrifluoroacetate]"
–,–,–,–,0.3,> 100000,12000,290,"Cc1cc(-c2cc(-n3cnn(CC(CN)=C(F)F)c3=O)ccn2)cc2c1NC(=O)CC2 [Example 65, 6-[4-[1-[2-(aminomethyl)-3,3-difluoro-allyl]-5-oxo-1,2,4-triazol-4-yl]-2-pyridyl]-8-methyl-3,4-dihydro-1H-quinolin-2-one Trifluoroacetate]"
1.3,> 100000,6300,25000,–,–,–,–,"Cc1cc(C#Cc2ccc(N(C)C)nc2)cnc1-n1cnn(CC(CN)=C(F)F)c1=O [Example 241, 2-[2-(aminomethyl)-3,3-difluoro-allyl]-4-[5-[2-[6-(dimethylamino)-3-pyridyl]ethynyl]-3-methyl-2-pyridyl]-1,2,4-triazol-3-one Trifluoroacetate]"
1,> 100000,15000,30000,–,–,–,–,"Cc1cc(C#Cc2cnn(C)c2)cnc1-n1cnn(CC(CN)=C(F)F)c1=O [Example 240, 2-[2-(aminomethyl)-3,3-difluoro-allyl]-4-[3-methyl-5-[2-(1-methylpyrazol-4-yl)ethynyl]-2-pyridyl]-1,2,4-triazol-3-one trifluoroacetate]"
–,–,–,–,0.3,> 100000,200,12,"NCC(Cn1ncn(-c2ccc(-c3ccc(C(F)(F)F)nc3)nc2)c1=O)=C(F)F [Example 40, 2-[2-(aminomethyl)-3,3-difluoro-allyl]-4-[6-[6-(trifluoromethyl)-3-pyridyl]-3-pyridyl]-1,2,4-triazol-3-one Trifluoroacetate]"
> 100,> 100000,> 100000,> 100000,–,–,–,–,"CCn1cc(-c2ccccc2Cn2cnn(CC(CN)=C(F)F)c2=O)ccc1=O [Example 285, 5-[2-[[1-[2-(aminomethyl)-3,3-difluoro-allyl]-5-oxo-1,2,4-triazol-4-yl]methyl]phenyl]-1-ethyl-pyridin-2-one Trifluoroacetate]"
–,–,–,–,4,> 100000,25000,19000,"NCC(Cn1ncn(-c2ccc(F)c(F)c2)c1=O)=C(F)F [Example 3, 2-[2-(aminomethyl)-3,3-difluoro-allyl]-4-(3,4-difluorophenyl)-1,2,4-triazol-3-one Trifluoroacetate]"
